This is an account of results in ChEMBL document CHEMBL1909046, “DrugMatrix in vitro pharmacology data”.

Test system in the first assay: not listed separately
The experiment in a line: DRUGMATRIX: Serotonin (5-Hydroxytryptamine) 5-HT3 radioligand binding (ligand: [3H] GR-65630). The class given is cell membranes, Membrane. As to conditions: hek293; Not Active = under 50% inhibition at 10 µM.
As to `COc1cc2c3cc1Oc1cc(ccc1O)C[C@@H]1c4c(cc(OC)c(O)c4Oc4ccc(cc4)C[C@@H]3N(C)CC2)CC[N+]1(C)C.[Cl-]`, the IC50 entry is listed as “Not Active” and the Ki entry was “Not Active”.

As to `CN(Cc1ccc(C(C)(C)C)cc1)Cc1cccc2ccccc12` [BUTENAFINE], the IC50 entry is recorded as “Not Active” and the Ki entry is “Not Active”.

In the case of `Sc1ncnc2nc[nH]c12` [MERCAPTOPURINE ANHYDROUS], the IC50 entry is on record as “Not Active” and the Ki entry is reported as “Not Active”.

Turning to `CC(C)(C)NCC(O)c1cc(Cl)c(N)c(Cl)c1` (stereo not drawn) [CLENBUTEROL], the IC50 result is reported as “Not Active” and the Ki result is recorded as “Not Active”.

`Nc1nc2c(ncn2COCCO)c(=O)[nH]1` [ACYCLOVIR]: the IC50 entry is reported as “Not Active” and the Ki entry is on record as “Not Active”.

As to `c1ccc2c(c1)c1cccc3ccc4cccc2c4c31` [BENZO[E]PYRENE], the IC50 result is given as “Not Active” and the Ki result was “Not Active”.

`O=C(O)CCCc1ccc(N(CCCl)CCCl)cc1` [CHLORAMBUCIL]: the IC50 result was “Not Active” and the Ki entry is recorded as “Not Active”.

A further assay deals with 5-hydroxytryptamine receptor 6 (Homo sapiens, UniProt P50406). It counts as cell membranes, HeLa, Membrane. The note with it: hela.
Chain of 5-hydroxytryptamine receptor 6 (P50406 whole entry): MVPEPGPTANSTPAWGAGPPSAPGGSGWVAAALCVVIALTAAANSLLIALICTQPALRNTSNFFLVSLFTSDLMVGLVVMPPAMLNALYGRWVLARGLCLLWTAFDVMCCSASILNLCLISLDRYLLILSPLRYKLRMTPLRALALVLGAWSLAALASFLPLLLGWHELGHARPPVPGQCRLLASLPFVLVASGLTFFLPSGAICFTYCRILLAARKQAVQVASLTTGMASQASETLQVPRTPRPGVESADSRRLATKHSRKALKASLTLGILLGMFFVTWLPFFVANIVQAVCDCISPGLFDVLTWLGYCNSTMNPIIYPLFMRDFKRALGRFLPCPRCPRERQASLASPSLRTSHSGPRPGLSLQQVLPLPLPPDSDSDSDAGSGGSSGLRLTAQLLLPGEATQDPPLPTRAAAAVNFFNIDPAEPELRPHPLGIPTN
`COc1cc2c3cc1Oc1cc(ccc1O)C[C@@H]1c4c(cc(OC)c(O)c4Oc4ccc(cc4)C[C@@H]3N(C)CC2)CC[N+]1(C)C.[Cl-]`: the IC50 entry is recorded as “Not Active”.

With `CN(Cc1ccc(C(C)(C)C)cc1)Cc1cccc2ccccc12` [BUTENAFINE], the IC50 result was “Not Active”.

With `Sc1ncnc2nc[nH]c12` [MERCAPTOPURINE ANHYDROUS], the IC50 result is given as “Not Active”.

Consider `CC(C)(C)NCC(O)c1cc(Cl)c(N)c(Cl)c1` (stereo not drawn) [CLENBUTEROL], for which the IC50 result was “Not Active”.

As for `Nc1nc2c(ncn2COCCO)c(=O)[nH]1` [ACYCLOVIR], the IC50 result is reported as “Not Active”.

As for `c1ccc2c(c1)c1cccc3ccc4cccc2c4c31` [BENZO[E]PYRENE], the IC50 entry is “Not Active”.

For the molecule `O=C(O)CCCc1ccc(N(CCCl)CCCl)cc1` [CHLORAMBUCIL], the IC50 entry is listed as “Not Active”.

A further assay concerns the target T1, Vasoactive intestinal polypeptide receptor 1 (Homo sapiens, UniProt P32241). Also: in other assays of this panel Not Active means under 50% inhibition at 10 µM.
T1 sequence (P32241 whole entry): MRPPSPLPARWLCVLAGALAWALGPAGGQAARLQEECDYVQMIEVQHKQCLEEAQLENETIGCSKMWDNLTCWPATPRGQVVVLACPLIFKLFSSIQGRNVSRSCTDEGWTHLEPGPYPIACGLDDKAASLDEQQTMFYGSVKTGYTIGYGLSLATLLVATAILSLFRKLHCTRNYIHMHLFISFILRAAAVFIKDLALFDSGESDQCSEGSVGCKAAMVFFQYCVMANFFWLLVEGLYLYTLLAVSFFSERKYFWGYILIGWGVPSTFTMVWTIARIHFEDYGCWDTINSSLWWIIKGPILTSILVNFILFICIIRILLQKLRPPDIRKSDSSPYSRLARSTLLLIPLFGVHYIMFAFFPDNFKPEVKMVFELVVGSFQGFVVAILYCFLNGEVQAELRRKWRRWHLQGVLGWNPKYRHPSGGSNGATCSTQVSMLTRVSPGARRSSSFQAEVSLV
It counts as cell membranes, Membrane. As to conditions: ht-29.
Take `COc1cc2c3cc1Oc1cc(ccc1O)C[C@@H]1c4c(cc(OC)c(O)c4Oc4ccc(cc4)C[C@@H]3N(C)CC2)CC[N+]1(C)C.[Cl-]`: the IC50 entry is “Not Active”.

Consider `CN(Cc1ccc(C(C)(C)C)cc1)Cc1cccc2ccccc12` [BUTENAFINE], for which the IC50 result was “Not Active”.

Turning to `Sc1ncnc2nc[nH]c12` [MERCAPTOPURINE ANHYDROUS], the IC50 result is “Not Active”.

In the case of `CC(C)(C)NCC(O)c1cc(Cl)c(N)c(Cl)c1` (stereo not drawn) [CLENBUTEROL], the IC50 entry is listed as “Not Active”.

Consider `Nc1nc2c(ncn2COCCO)c(=O)[nH]1` [ACYCLOVIR], for which the IC50 entry is listed as “Not Active”.

As to `c1ccc2c(c1)c1cccc3ccc4cccc2c4c31` [BENZO[E]PYRENE], the IC50 entry is “Not Active”.

With `O=C(O)CCCc1ccc(N(CCCl)CCCl)cc1` [CHLORAMBUCIL], the IC50 entry is recorded as “Not Active”.

The target in another assay is Carbonic anhydrase 2 (Homo sapiens, UniProt P00918). As to the kind of experiment: DRUGMATRIX: Carbonic Anhydrase II enzyme inhibition (substrate: 4-Nitrophenyl acetate (4-NPA)). It counts as tissue-based, Erythrocyte. The note with it: erythrocyte; Not Active = under 50% inhibition at 10 µM.
`COc1cc2c3cc1Oc1cc(ccc1O)C[C@@H]1c4c(cc(OC)c(O)c4Oc4ccc(cc4)C[C@@H]3N(C)CC2)CC[N+]1(C)C.[Cl-]`: the IC50 entry is recorded as “Not Active”.

On to `CN(Cc1ccc(C(C)(C)C)cc1)Cc1cccc2ccccc12` [BUTENAFINE], for which the IC50 entry is on record as “Not Active”.

Regarding `Sc1ncnc2nc[nH]c12` [MERCAPTOPURINE ANHYDROUS], the IC50 entry is reported as “Not Active”.

With `CC(C)(C)NCC(O)c1cc(Cl)c(N)c(Cl)c1` (stereo not drawn) [CLENBUTEROL], the IC50 entry is recorded as “Not Active”.

In the case of `Nc1nc2c(ncn2COCCO)c(=O)[nH]1` [ACYCLOVIR], the IC50 result is on record as “Not Active”.

With `c1ccc2c(c1)c1cccc3ccc4cccc2c4c31` [BENZO[E]PYRENE], the IC50 entry was “Not Active”.

`O=C(O)CCCc1ccc(N(CCCl)CCCl)cc1` [CHLORAMBUCIL]: the IC50 entry is “Not Active”.

Test system in another assay: not listed separately
As to the kind of experiment: DRUGMATRIX: GABAA, Muscimol, Central radioligand binding (ligand: [3H] Muscimol). As to conditions: Not Active = under 50% inhibition at 10 µM. It counts as cell membranes, Rattus norvegicus, Wistar, Brain, Membrane.
On to `COc1cc2c3cc1Oc1cc(ccc1O)C[C@@H]1c4c(cc(OC)c(O)c4Oc4ccc(cc4)C[C@@H]3N(C)CC2)CC[N+]1(C)C.[Cl-]`, for which the IC50 result was “Not Active” and the Ki result is on record as “Not Active”.

For the molecule `CN(Cc1ccc(C(C)(C)C)cc1)Cc1cccc2ccccc12` [BUTENAFINE], the IC50 result is “Not Active” and the Ki result was “Not Active”.

Take `Sc1ncnc2nc[nH]c12` [MERCAPTOPURINE ANHYDROUS]: the IC50 result is “Not Active” and the Ki entry was “Not Active”.

With `CC(C)(C)NCC(O)c1cc(Cl)c(N)c(Cl)c1` (stereo not drawn) [CLENBUTEROL], the IC50 result is reported as “Not Active” and the Ki entry is reported as “Not Active”.

`Nc1nc2c(ncn2COCCO)c(=O)[nH]1` [ACYCLOVIR]: the IC50 entry is “Not Active” and the Ki result is “Not Active”.

Consider `c1ccc2c(c1)c1cccc3ccc4cccc2c4c31` [BENZO[E]PYRENE], for which the IC50 result is “Not Active” and the Ki entry was “Not Active”.

With `O=C(O)CCCc1ccc(N(CCCl)CCCl)cc1` [CHLORAMBUCIL], the IC50 result is “Not Active” and the Ki result is given as “Not Active”.

The next assay concerns the target T2, Muscarinic acetylcholine receptor M4 (Homo sapiens, UniProt P08173). Also: in other assays of this panel Not Active means under 50% inhibition at 10 µM.
T2 sequence (P08173 whole entry): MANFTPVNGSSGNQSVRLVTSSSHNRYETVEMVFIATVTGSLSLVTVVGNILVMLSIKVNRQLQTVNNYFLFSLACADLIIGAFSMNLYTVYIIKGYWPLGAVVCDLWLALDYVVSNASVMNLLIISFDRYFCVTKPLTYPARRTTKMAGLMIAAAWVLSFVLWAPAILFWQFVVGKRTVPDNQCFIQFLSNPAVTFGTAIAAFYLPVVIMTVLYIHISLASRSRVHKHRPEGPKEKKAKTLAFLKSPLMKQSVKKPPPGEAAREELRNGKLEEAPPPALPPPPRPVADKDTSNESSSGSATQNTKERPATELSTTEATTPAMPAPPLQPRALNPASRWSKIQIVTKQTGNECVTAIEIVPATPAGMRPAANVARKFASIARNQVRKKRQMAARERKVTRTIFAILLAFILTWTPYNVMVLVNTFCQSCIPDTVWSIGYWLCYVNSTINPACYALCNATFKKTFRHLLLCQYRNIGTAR
It counts as cell membranes, CHO-K1, Membrane. The note with it: cho-k1.
Turning to `COc1cc2c3cc1Oc1cc(ccc1O)C[C@@H]1c4c(cc(OC)c(O)c4Oc4ccc(cc4)C[C@@H]3N(C)CC2)CC[N+]1(C)C.[Cl-]`, the IC50 result is given as “Not Active”.

Consider `CN(Cc1ccc(C(C)(C)C)cc1)Cc1cccc2ccccc12` [BUTENAFINE], for which the IC50 result is “Not Active”.

`Sc1ncnc2nc[nH]c12` [MERCAPTOPURINE ANHYDROUS]: the IC50 result was “Not Active”.

`CC(C)(C)NCC(O)c1cc(Cl)c(N)c(Cl)c1` (stereo not drawn) [CLENBUTEROL]: the IC50 entry was “Not Active”.

Regarding `Nc1nc2c(ncn2COCCO)c(=O)[nH]1` [ACYCLOVIR], the IC50 entry was “Not Active”.

For the molecule `c1ccc2c(c1)c1cccc3ccc4cccc2c4c31` [BENZO[E]PYRENE], the IC50 entry is “Not Active”.

For the molecule `O=C(O)CCCc1ccc(N(CCCl)CCCl)cc1` [CHLORAMBUCIL], the IC50 result was “Not Active”.

A further assay deals with T3, Angiotensin-converting enzyme (Oryctolagus cuniculus, UniProt P12822).
T3 sequence (P12822 whole entry): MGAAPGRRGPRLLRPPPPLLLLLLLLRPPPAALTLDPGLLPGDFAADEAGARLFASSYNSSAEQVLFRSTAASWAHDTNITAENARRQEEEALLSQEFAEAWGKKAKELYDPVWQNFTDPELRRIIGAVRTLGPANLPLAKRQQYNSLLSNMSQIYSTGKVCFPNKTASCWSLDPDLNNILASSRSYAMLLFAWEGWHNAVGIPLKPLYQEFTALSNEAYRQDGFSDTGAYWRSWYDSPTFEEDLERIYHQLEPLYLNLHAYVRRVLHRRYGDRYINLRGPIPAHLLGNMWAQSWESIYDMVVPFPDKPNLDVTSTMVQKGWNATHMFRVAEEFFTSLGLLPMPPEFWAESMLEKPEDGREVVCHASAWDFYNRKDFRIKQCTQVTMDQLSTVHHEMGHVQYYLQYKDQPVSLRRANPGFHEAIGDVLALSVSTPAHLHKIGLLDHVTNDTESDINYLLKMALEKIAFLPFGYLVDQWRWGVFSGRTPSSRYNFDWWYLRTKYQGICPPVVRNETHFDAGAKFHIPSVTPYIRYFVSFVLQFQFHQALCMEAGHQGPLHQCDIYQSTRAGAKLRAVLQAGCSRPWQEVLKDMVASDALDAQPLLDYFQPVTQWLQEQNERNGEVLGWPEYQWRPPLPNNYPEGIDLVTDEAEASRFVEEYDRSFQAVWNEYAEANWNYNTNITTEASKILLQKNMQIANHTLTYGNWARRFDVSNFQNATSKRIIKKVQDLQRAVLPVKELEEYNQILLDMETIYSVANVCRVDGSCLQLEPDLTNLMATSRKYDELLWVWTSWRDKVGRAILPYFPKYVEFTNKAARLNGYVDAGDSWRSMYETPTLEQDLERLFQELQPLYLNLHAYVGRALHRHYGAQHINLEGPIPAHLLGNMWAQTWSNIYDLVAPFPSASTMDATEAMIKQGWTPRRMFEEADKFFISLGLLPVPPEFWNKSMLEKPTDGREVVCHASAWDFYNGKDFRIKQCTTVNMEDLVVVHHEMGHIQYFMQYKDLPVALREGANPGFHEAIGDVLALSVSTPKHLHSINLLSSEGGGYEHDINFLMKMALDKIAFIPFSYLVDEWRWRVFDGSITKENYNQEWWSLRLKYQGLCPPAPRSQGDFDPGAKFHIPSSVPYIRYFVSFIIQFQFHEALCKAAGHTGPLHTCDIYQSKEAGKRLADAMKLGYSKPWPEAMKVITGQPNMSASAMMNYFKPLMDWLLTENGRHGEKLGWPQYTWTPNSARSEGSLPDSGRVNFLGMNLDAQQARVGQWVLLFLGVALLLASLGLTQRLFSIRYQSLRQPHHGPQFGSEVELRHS
It counts as tissue-based, Lung.
Conditions: not given
In the case of `COc1cc2c3cc1Oc1cc(ccc1O)C[C@@H]1c4c(cc(OC)c(O)c4Oc4ccc(cc4)C[C@@H]3N(C)CC2)CC[N+]1(C)C.[Cl-]`, the IC50 entry is given as “Not Active”.

In the case of `CN(Cc1ccc(C(C)(C)C)cc1)Cc1cccc2ccccc12` [BUTENAFINE], the IC50 result was “Not Active”.

Take `Sc1ncnc2nc[nH]c12` [MERCAPTOPURINE ANHYDROUS]: the IC50 entry is given as “Not Active”.

Consider `CC(C)(C)NCC(O)c1cc(Cl)c(N)c(Cl)c1` (stereo not drawn) [CLENBUTEROL], for which the IC50 result was “Not Active”.

In the case of `Nc1nc2c(ncn2COCCO)c(=O)[nH]1` [ACYCLOVIR], the IC50 entry is reported as “Not Active”.

`c1ccc2c(c1)c1cccc3ccc4cccc2c4c31` [BENZO[E]PYRENE]: the IC50 entry is “Not Active”.

In the case of `O=C(O)CCCc1ccc(N(CCCl)CCCl)cc1` [CHLORAMBUCIL], the IC50 result is given as “Not Active”.
